Laboratory results published in US20240115704A1, “TREATMENT OF CANCER WITH NK CELLS AND A CD38-TARGETED ANTIBODY” (Artiva Biotherapeutics, Inc., priority 2021, published 2024).

What was measured:
K562 = assay: Cytotoxicity of steroid treated AB-101 cells against K562; assay type: cell-based; conditions: 5:1 E:T
Daudi = assay: Cytotoxicity of steroid treated AB-101 cells against Daudi; assay type: cell-based; conditions: 48 hours; particularly when combined with 500 IU/mL of IL-2; 5:1 E:T
NCI-H929 = assay: Cytotoxicity of steroid treated AB-101 cells against NCI-H929; assay type: cell-based; conditions: 48 hours; particularly when combined with 500 IU/mL of IL-2; 5:1 E:T
[1] = tested on: K562, Daudi, RPMI-8226, and NCI-H929; assay: Impact of steroids on AB-101+daratumumab ADCC; conditions: 48 hours steroid treatment; 5:1 E:T; with daratumumab
[2] = tested on: Burkitt's lymphoma cell line Daudi; assay: Complement fixation assay (CDC), assay control tumor line; assay type: cell-based; conditions: human complement serum; lowest concentration tested
From the text: Burkitt's lymphoma cell line Daudi was included as an assay control.

CD38− cell line K562 = assay: Daratumumab titration, cytotoxicity of AB-101 cells against K562; assay type: cell-based; conditions: AB-101 at 5:1 E:T, 4 hours
Procedure: (§1) After 4 hours on co-culture, the samples were analyzed by flow cytometry.

[3] = tested on: CD38+ multiple myeloma cell line MM.1S; assay: Daratumumab titration, ADCC by AB-101 cells against MM.1S; assay type: cell-based; conditions: AB-101 at 5:1 E:T, 4 hours
Procedure: as §1

Compound | basal cytotoxicity of steroid treated AB-101 cells (K562; 0.1, 1, 10 μM for 48 hours, all concentrations tested, with the exception of one cell lot) | cytotoxicity of steroid treated AB-101 cells with 500 IU/ml of IL-2 (K562; 500 IU/ml IL-2 during steroid treatment) | basal cytotoxicity of steroid treated AB-101 cells (Daudi) | basal cytotoxicity of steroid treated AB-101 cells (NCI-H929) | ADCC potential of steroid treated AB-101 cells [1] | concentration of daratumumab at which lysis reached saturation [2] [µg/mL] | cytotoxicity of AB-101 cells, daratumumab vs IgG control (CD38− cell line K562) | ADCC compared to IgG1 control antibodies [3]
C[C@@H]1C[C@H]2[C@@H]3CCC4=CC(=O)C=C[C@]4(C)[C@@]3(F)[C@@H](O)C[C@]2(C)[C@@]1(O)C(=O)CO [Dexamethasone, (8S,9R,10S,11S,13S,14S,16R,17R)-9-fluoro-11,17-dihydroxy-17-(2-hydroxyacetyl)-10,13,16-trimethyl-6,7,8,11,12,14,15,16-octahydrocyclopenta[a]phenanthren-3-one] | reduced | restored cytotoxicity | enhanced | enhanced | did not abolish | – | – | –
daratumumab: mAb that targets CD38, approved for multiple myeloma | – | – | – | – | – | ≤ 0.41 | no change in cytotoxicity | elicited ADCC
